Values after ≈ are worked out from the molar mass of the structure shown. Read-outs that look alike come from different tables or passages of the source.
What was measured:
[1] = tested on: Vaccinia virus, WR strain; settings: for TC50: toxic concentration in the Vaccinia virus screen; for activity against vaccinia virus (in words): summary of Table 1
E. coli = assay: microbe, parasite or virus in culture; type: cell-based; settings: Escherichia coli
E. coli (ATCC 25922) = assay: Test C: MIC against E. coli (ATCC 25922); type: cell-based
[2] = tested on: P. aeruginosa (ATCC 27853); assay: Test C: MIC against P. aeruginosa (ATCC 27853); type: cell-based; settings: Pseudomonas aeruginosa, ATCC27853, P. aeruginosa (ATCC 27853)
anthrax = assay: organism not typed; type: cell-based
S. aureus (ATCC 29213) = assay: Test C: MIC against S. aureus (ATCC 29213); type: cell-based; settings: Staphylococcus aureus, ATCC29213, CAMHB + IV
Y. pestis (CO92) = assay: microbe, parasite or virus in culture; type: cell-based; settings: Yersinia pestis
[3] = tested on: Vaccinia virus, WR strain; assay: microbe, parasite or virus in culture; settings: Orthopoxvirus vaccinia
[4] = tested on: B. pseudomallei (ATCC 23342); assay: microbe, parasite or virus in culture; type: cell-based; settings: Burkholderia pseudomallei, ATCC23342
B. mallei (ATCC 23344) = assay: microbe, parasite or virus in culture; type: cell-based; settings: Burkholderia mallei, ATCC23344
plague = assay: organism not typed; type: cell-based
F. tularensis (SCHU4) = assay: microbe, parasite or virus in culture; type: cell-based; settings: Francisella tularensis
B. anthracis (Ames) = assay: microbe, parasite or virus in culture; type: cell-based; settings: Bacillus anthracis

SMILES	Comments (activity rating) ([1]; Vaccinia virus, WR strain)	TC50 [1] [µg/mL]	MIC (E. coli) [µg/mL]	MIC (E. coli (ATCC 25922); CAMHB + IV)	MIC (E. coli (ATCC 25922); Escherichia coli, ATCC25922, CAMHB, read-out: MIC) [µg/mL]	IC50 (Tacaribe virus) [µg/mL]	MIC ([2]; CAMHB) [µg/mL]	MIC ([2]; CAMHB + IV) [µg/mL]	MIC (anthrax) [µg/mL]	MIC (S. aureus (ATCC 29213)) [µg/mL]	MIC (Y. pestis (CO92)) [µg/mL]	IC50 (Pichinde virus) [µg/mL]	IC50 [3] [µg/mL]	MIC [4] [µg/mL]	activity against vaccinia virus (in words) [1]	MIC (B. mallei (ATCC 23344)) [µg/mL]	MIC (plague) [µg/mL]	MIC (F. tularensis (SCHU4)) [µg/mL]	MIC (B. anthracis (Ames)) [µg/mL]	IC50 ([1]; Vaccinia virus, WR strain) [µg/mL]
Nc1ccn(C[C@@H](CO)OCP(=O)(O)O)c(=O)n1 [Cidofir, reference compound]	Inactive	>100																		
C(CNC12CC3CC(CC(C3)C1)C2)NC12CC3CC(CC(C3)C1)C2 [Compound 6]	Active	5.58 (≈ 17 µM)	4 to 8 (≈ 12.2 to 24.3 µM)	≦0.06 ug/ml	≤ 0.06	6 (≈ 18.3 µM)	2 (≈ 6.09 µM)	4	1 to 4 (≈ 3.04 to 12.2 µM)	1	≤ 0.06	11 (≈ 33.5 µM)	0.32 (≈ 0.974 µM)	2 (≈ 6.09 µM)	moderate to high activity	2 (≈ 6.09 µM)	4 (≈ 12.2 µM)	≤ 0.06	0.25 (≈ 0.761 µM)	
ClN(CCN(Cl)C12CC3CC(CC(C3)C1)C2)C12CC3CC(CC(C3)C1)C2 [Compound 7]	Moderate	63.40 (≈ 160 µM)				17 (≈ 42.8 µM)						3.4 (≈ 8.55 µM)	6.37 (≈ 16 µM)		moderate to high activity					
NC(=O)c1ncn([C@@H]2O[C@H](CO)[C@@H](O)[C@H]2O)n1 [Ribivirin, reference compound]	Moderate	>100																		27.90 (≈ 114 µM)

Reference: patent US8835507B2, “Adamantane derivatives possessing anti-viral and anti-microbial activity” (priority 2012, dated 2014)
